# Laboratory results taken from patent US20250243171A1, “QUINAZOLINE COMPOUNDS FOR TREATMENT OF DISEASE” (Arthrosi Therapeutics, Inc., priority 2021, published 2025).
# Key:
# Assay in all cases: EC50 assay: Ba/F3 stable cell proliferation (CCK-8, 72 h)
# Assay type in all cases: cell-based
# [1] = molecular target: T1, Ba/F3 stable cells (Homo sapiens, UniProt P00533, DUP767-769, cells depend on it); conditions: Ba/F3-EGFR V769-D770insASV cells
# T1 construct: EC50 Ba/F3-EGFR V769-D770insASV; other: Ba/F3-EGFR V769-D770insASV cells, 72 h, CCK-8
# T1 sequence (P00533 with tags, fused parts or gaps DUP767-769): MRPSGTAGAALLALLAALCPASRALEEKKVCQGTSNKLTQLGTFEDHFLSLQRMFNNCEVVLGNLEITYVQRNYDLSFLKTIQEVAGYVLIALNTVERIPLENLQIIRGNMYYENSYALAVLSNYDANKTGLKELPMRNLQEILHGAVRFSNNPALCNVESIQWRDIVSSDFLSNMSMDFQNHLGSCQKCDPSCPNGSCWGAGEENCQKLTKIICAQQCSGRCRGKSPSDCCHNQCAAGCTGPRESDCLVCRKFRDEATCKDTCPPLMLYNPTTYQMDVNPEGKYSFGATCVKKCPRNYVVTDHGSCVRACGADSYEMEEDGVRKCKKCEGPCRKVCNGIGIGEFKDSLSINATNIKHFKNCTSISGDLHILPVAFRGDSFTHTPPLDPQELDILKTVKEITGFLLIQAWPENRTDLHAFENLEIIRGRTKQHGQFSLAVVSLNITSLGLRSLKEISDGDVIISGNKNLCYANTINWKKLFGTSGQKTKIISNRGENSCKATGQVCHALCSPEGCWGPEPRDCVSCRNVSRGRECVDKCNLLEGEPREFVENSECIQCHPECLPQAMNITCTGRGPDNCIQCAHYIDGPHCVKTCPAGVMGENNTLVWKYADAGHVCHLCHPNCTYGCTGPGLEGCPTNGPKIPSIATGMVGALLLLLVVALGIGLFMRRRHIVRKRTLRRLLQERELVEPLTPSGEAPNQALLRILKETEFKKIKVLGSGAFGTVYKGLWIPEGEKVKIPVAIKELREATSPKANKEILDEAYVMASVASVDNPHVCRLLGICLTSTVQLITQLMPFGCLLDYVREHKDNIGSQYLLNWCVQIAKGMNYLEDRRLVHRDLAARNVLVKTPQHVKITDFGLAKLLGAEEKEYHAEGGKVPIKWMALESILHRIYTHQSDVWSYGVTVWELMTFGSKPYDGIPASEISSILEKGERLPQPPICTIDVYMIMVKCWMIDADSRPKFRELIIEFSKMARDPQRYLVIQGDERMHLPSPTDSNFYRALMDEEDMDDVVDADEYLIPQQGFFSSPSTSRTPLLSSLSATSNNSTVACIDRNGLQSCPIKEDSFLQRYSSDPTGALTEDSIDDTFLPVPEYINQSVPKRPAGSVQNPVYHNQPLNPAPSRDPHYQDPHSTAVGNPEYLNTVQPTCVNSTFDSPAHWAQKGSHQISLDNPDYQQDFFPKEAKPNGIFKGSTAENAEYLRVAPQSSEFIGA
# Summary of the method: (§1)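 Ba/F3 stable cells were seeded at 4,000 cells/90 μL/well in 96-well plates and held 2 h at 37° C. in 5% CO2, then given 10 μL of serially titrated compound (0.1% DMSO final). After 72 h at 37° C., CCK-8 reagent was added for 4 hours and absorbance read at 450 nm to derive EC50.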
# [2] = molecular target: T2, Ba/F3 stable cells (Homo sapiens, UniProt P00533, DUP768-770, cells depend on it); conditions: Ba/F3-EGFR D770-N771insSVD cells
# T2 construct: EC50 Ba/F3-EGFR D770-N771insSVD; other: Ba/F3-EGFR D770-N771insSVD cells, 72 h, CCK-8
# T2 sequence (P00533 with tags, fused parts or gaps DUP768-770): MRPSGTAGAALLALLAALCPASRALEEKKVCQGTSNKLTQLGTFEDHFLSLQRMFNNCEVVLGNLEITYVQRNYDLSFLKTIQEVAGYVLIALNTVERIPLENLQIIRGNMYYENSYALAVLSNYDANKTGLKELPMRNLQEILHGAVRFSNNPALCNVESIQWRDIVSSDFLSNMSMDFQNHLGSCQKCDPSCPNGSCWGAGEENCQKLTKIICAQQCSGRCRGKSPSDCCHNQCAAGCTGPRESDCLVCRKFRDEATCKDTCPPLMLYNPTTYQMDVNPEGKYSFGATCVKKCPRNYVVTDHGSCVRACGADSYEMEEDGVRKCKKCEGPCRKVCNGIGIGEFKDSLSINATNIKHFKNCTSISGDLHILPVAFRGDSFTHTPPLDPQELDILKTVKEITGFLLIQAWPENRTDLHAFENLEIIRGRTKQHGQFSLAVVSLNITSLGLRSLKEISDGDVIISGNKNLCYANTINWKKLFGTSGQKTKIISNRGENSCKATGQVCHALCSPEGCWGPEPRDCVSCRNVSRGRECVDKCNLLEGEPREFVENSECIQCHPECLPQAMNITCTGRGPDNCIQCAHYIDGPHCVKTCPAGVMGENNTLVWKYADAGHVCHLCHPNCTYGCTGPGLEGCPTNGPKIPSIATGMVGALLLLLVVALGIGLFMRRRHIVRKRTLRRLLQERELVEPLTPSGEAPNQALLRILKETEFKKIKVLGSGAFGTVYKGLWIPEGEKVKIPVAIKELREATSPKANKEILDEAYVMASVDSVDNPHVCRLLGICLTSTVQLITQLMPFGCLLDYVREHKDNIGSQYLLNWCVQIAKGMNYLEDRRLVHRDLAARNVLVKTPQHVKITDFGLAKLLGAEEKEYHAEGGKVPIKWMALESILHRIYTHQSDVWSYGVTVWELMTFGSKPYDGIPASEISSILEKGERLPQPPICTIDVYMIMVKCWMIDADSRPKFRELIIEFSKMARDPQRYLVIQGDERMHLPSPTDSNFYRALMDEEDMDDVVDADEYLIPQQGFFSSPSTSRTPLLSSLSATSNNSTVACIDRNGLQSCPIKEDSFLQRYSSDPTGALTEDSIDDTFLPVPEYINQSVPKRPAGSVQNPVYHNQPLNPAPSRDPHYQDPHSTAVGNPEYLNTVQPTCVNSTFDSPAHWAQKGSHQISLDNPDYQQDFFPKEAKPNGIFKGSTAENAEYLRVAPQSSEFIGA
# Summary of the method: as §1
# [3] = molecular target: T3, Ba/F3 stable cells (Homo sapiens, UniProt P00533, DUP771-773, cells depend on it); conditions: Ba/F3-EGFR H773-V774insNPH cells
# T3 construct: EC50 Ba/F3-EGFR H773-V774insNPH; other: Ba/F3-EGFR H773-V774insNPH cells, 72 h, CCK-8
# Summary of the method: as §1
# [4] = molecular target: T4, Ba/F3 stable cells (Homo sapiens, UniProt P00533, INS763FQEA, cells depend on it); conditions: Ba/F3-EGFR A763-Y764insFQEA cells
# T4 construct: EC50 Ba/F3-EGFR A763-Y764insFQEA; other: Ba/F3-EGFR A763-Y764insFQEA cells, 72 h, CCK-8
# Summary of the method: as §1
# [5] = molecular target: T5, Ba/F3 stable cells (Homo sapiens, UniProt P00533, T790M/L858R, cells depend on it); conditions: Ba/F3-EGFR L858R-T790M cells
# T5 construct: EC50 Ba/F3-EGFR L858R-T790M; other: Ba/F3-EGFR L858R-T790M cells, 72 h, CCK-8
# T5 sequence (P00533 whole entry T790M/L858R): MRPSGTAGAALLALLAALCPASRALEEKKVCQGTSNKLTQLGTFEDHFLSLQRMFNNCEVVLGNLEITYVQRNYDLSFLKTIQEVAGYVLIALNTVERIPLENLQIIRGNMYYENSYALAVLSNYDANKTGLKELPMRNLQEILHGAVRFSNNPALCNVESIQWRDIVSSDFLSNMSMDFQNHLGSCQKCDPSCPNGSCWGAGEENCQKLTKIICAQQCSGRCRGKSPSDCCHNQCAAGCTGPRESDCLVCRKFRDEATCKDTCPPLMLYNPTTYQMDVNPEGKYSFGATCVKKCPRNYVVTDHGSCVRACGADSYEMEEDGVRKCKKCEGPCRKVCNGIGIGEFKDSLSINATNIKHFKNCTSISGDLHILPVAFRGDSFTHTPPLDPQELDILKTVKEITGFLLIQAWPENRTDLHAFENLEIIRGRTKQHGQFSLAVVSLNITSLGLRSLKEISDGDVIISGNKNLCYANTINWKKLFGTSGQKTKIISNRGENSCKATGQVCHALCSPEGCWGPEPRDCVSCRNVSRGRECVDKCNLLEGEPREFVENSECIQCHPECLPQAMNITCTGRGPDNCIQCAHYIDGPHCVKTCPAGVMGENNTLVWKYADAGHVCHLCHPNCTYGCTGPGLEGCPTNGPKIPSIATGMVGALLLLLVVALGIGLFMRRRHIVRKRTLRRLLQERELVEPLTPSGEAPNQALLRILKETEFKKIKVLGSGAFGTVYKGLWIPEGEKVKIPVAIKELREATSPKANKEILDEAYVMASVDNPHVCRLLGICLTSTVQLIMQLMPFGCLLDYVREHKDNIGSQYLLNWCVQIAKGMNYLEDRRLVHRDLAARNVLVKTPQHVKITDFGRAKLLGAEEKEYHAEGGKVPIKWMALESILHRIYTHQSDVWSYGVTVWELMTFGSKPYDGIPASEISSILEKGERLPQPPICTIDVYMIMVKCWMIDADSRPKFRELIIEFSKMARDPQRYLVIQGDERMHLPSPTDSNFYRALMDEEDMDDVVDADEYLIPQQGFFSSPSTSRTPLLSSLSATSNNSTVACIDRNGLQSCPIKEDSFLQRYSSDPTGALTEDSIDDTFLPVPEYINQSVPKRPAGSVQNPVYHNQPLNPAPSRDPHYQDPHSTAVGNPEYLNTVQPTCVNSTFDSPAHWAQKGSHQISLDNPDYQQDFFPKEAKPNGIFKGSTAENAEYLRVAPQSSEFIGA
# Summary of the method: as §1
# [6] = molecular target: T6, Ba/F3 stable cells (Homo sapiens, UniProt P04626, DUP772-775, cells depend on it); conditions: Ba/F3-HER2 A775-G776insYVMA cells
# T6 construct: EC50 Ba/F3-HER2 A775-G776insYVMA; other: Ba/F3-HER2 A775-G776insYVMA cells, 72 h, CCK-8
# T6 sequence (P04626 with tags, fused parts or gaps DUP772-775): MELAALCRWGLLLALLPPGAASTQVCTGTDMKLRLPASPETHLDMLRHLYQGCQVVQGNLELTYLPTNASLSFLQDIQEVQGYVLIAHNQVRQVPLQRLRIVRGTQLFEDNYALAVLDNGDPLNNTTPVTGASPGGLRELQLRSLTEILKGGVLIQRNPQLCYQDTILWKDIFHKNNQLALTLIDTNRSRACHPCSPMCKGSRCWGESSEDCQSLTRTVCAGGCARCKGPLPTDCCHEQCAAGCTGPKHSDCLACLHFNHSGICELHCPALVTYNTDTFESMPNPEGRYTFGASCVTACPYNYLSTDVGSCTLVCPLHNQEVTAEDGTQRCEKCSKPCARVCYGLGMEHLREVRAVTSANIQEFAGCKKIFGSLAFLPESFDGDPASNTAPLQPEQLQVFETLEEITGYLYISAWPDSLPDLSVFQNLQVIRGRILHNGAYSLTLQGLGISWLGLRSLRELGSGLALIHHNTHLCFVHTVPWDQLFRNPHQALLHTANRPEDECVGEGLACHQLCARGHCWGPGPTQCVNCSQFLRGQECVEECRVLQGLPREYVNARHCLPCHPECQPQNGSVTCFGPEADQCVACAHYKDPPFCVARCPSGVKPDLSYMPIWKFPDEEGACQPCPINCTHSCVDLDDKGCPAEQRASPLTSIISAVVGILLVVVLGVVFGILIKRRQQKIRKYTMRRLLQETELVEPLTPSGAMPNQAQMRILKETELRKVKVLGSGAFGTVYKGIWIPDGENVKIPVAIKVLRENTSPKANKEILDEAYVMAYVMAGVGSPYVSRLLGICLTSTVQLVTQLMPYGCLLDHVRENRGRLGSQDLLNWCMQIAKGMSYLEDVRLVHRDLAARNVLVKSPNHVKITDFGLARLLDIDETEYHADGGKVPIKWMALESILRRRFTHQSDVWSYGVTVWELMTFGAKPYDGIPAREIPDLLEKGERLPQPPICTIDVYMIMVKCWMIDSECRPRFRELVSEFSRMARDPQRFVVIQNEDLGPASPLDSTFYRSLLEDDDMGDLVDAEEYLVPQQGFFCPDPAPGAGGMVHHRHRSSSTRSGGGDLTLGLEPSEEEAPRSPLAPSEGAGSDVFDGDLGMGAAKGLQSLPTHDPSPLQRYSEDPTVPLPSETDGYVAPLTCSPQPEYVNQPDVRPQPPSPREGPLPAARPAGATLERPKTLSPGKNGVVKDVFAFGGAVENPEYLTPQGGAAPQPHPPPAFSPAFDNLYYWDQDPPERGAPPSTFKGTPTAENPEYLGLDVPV
# Summary of the method: as §1
Compound,EC50 [1] [nM],EC50 [2] [nM],EC50 [3] [nM],EC50 [4] [nM],EC50 [5] [nM],EC50 [6] [nM]
"C#CC(=O)N1C2CCC1CC(Oc1cc3c(Nc4cccc5ccccc45)ncnc3cc1OC)C2 (stereo not drawn) [Compound 60, 1-(3-((7-methoxy-4-(naphthalen-1-ylamino)quinazolin-6-yl)oxy)-8-azabicyclo[3.2.1]octan-8-yl)prop-2-yn-1-one]",≤ 200,200 to 1000,≤ 200,≤ 200,≤ 200,200 to 1000
"C#CC(=O)N1CCCC(c2ccc3ncnc(Nc4ccc(Cl)c(Cl)c4F)c3c2)C1 (stereo not drawn) [Compound 61, 1-(3-(4-((3,4-dichloro-2-fluorophenyl)amino)quinazolin-6-yl)piperidin-1-yl)prop-2-yn-1-one]",≤ 200,≤ 200,≤ 200,≤ 200,≤ 200,200 to 1000
"C#CC(=O)N1CCC=C(c2ccc3ncnc(Nc4ccc(Cl)c(Cl)c4F)c3c2)C1 [Compound 62, 1-(5-(4-((3,4-dichloro-2-fluorophenyl)amino)quinazolin-6-yl)-3,6-dihydropyridin-1(2H)-yl)prop-2-yn-1-one]",200 to 1000,200 to 1000,200 to 1000,≤ 200,200 to 1000,200 to 1000
"C#CC(=O)N1CCC=C(c2cc3c(Nc4ccc(Cl)c(Cl)c4F)ncnc3cc2OC)C1 [Compound 63, 1-(5-(4-((3,4-dichloro-2-fluorophenyl)amino)-7-methoxyquinazolin-6-yl)-3,6-dihydropyridin-1(2H)-yl)prop-2-yn-1-one]",≤ 200,≤ 200,≤ 200,≤ 200,≤ 200,200 to 1000
"C=CC(=O)N[C@H]1C[C@@H](Oc2cc3c(Nc4ccc(Cl)c(Cl)c4F)ncnc3cc2OC)C1 [Compound 66, N-((1s,3s)-3-((4-((3,4-dichloro-2-fluorophenyl)amino)-7-methoxyquinazolin-6-yl)oxy)cyclobutyl)acrylamide]",≤ 200,200 to 1000,≤ 200,≤ 200,≤ 200,≤ 200
"C=CC(=O)NC1CC(Oc2cc3c(Nc4ccc(C)c5c4CCC5)ncnc3cc2OC)C1 (stereo not drawn) [Compound 67, N-(3-((7-methoxy-4-((7-methyl-2,3-dihydro-1H-inden-4-yl)amino)quinazolin-6-yl)oxy)cyclobutyl)acrylamide]",> 1000,> 1000,> 1000,200 to 1000,> 1000,> 1000
"C=CC(=O)NC1CC(Oc2cc3c(Nc4ccc(F)c5c4CCC5=O)ncnc3cc2OC)C1 (stereo not drawn) [Compound 68, N-(3-((4-((7-fluoro-1-oxo-2,3-dihydro-1H-inden-4-yl)amino)-7-methoxyquinazolin-6-yl)oxy)cyclobutyl)acrylamide]",> 1000,> 1000,> 1000,> 1000,> 1000,> 1000
"C=CC(=O)NC1CC(Oc2cc3c(Nc4ccc(F)c5c4CCC5O)ncnc3cc2OC)C1 (stereo not drawn) [Compound 69, N-(3-((4-((7-fluoro-1-hydroxy-2,3-dihydro-1H-inden-4-yl)amino)-7-methoxyquinazolin-6-yl)oxy)cyclobutyl)acrylamide]",> 1000,> 1000,> 1000,> 1000,> 1000,> 1000
"C=CC(=O)NC1CC(Oc2cc3c(Nc4ccc5c(c4)CCCC5=O)ncnc3cc2OC)C1 (stereo not drawn) [Compound 70, N-(3-((7-methoxy-4-((5-oxo-5,6,7,8-tetrahydronaphthalen-2-yl)amino)quinazolin-6-yl)oxy)cyclobutyl)acrylamide]",> 1000,> 1000,> 1000,> 1000,> 1000,> 1000
"C=CC(=O)NC1CC(Oc2cc3c(Nc4ccc5c(c4)CCCC5O)ncnc3cc2OC)C1 (stereo not drawn) [Compound 71, N-(3-((4-((5-hydroxy-5,6,7,8-tetrahydronaphthalen-2-yl)amino)-7-methoxyquinazolin-6-yl)oxy)cyclobutyl)acrylamide]",> 1000,> 1000,> 1000,> 1000,> 1000,> 1000
"C=CC(=O)N(C)C1CC(Oc2cc3c(Nc4ccc(Cl)c(Cl)c4F)ncnc3cc2OC)C1 (stereo not drawn) [Compound 72, N-(3-((4-((3,4-dichloro-2-fluorophenyl)amino)-7-methoxyquinazolin-6-yl)oxy)cyclobutyl)-N-methylacrylamide]",≤ 200,≤ 200,≤ 200,≤ 200,200 to 1000,200 to 1000
"C=CC(=O)NC1CC(Oc2cc3c(Nc4ccc(Cl)c(Cl)c4)ncnc3cc2OC)C1 (stereo not drawn) [Compound 73, N-(3-((4-((3,4-dichlorophenyl)amino)-7-methoxyquinazolin-6-yl)oxy)cyclobutyl)acrylamide]",≤ 200,200 to 1000,200 to 1000,≤ 200,> 1000,200 to 1000
"C=CC(=O)NC1CC(Oc2cc3c(Nc4cccc(Cl)c4F)ncnc3cc2OC)C1 (stereo not drawn) [Compound 74, N-(3-((4-((3-chloro-2-fluorophenyl)amino)-7-methoxyquinazolin-6-yl)oxy)cyclobutyl)acrylamide]",≤ 200,200 to 1000,≤ 200,≤ 200,200 to 1000,≤ 200
"C=CC(=O)NC1CC(Oc2cc3c(Nc4ccc(Cl)c(F)c4Cl)ncnc3cc2OC)C1 (stereo not drawn) [Compound 75, N-(3-((4-((2,4-dichloro-3-fluorophenyl)amino)-7-methoxyquinazolin-6-yl)oxy)cyclobutyl)acrylamide]",200 to 1000,> 1000,200 to 1000,≤ 200,200 to 1000,200 to 1000
"C=CC(=O)NC1CC(Oc2cc3c(Nc4ccc(F)c(Cl)c4Cl)ncnc3cc2OC)C1 (stereo not drawn) [Compound 76, N-(3-((4-((2,3-dichloro-4-fluorophenyl)amino)-7-methoxyquinazolin-6-yl)oxy)cyclobutyl)acrylamide]",≤ 200,200 to 1000,200 to 1000,≤ 200,> 1000,200 to 1000
"C=CC(=O)N[C@H]1C[C@H](Oc2cc3c(Nc4ccccc4F)ncnc3cc2OC)C1 [Compound 77, N-(3-((4-((2-fluorophenyl)amino)-7-methoxyquinazolin-6-yl)oxy)cyclobutyl)acrylamide]",200 to 1000,> 1000,200 to 1000,≤ 200,> 1000,200 to 1000
"C=CC(=O)NC1CC(Oc2cc3c(Nc4ccc(Cl)cc4F)ncnc3cc2OC)C1 (stereo not drawn) [Compound 78, N-(3-((4-((4-chloro-2-fluorophenyl)amino)-7-methoxyquinazolin-6-yl)oxy)cyclobutyl)acrylamide]",≤ 200,> 1000,200 to 1000,≤ 200,> 1000,200 to 1000
"C=CC(=O)N[C@H]1C[C@H](Oc2cc3c(Nc4ccc(Cl)c(Cl)c4F)ncnc3cc2OC)C1 [Compound 79, N-((1r,3r)-3-((4-((3,4-dichloro-2-fluorophenyl)amino)-7-methoxyquinazolin-6-yl)oxy)cyclobutyl)acrylamide]",≤ 200,> 1000,200 to 1000,≤ 200,> 1000,200 to 1000
"C=CC(=O)NC1CC(Oc2cc3c(Nc4ccc5ccccc5c4)ncnc3cc2OC)C1 (stereo not drawn) [Compound 80, N-(3-((7-methoxy-4-(naphthalen-2-ylamino)quinazolin-6-yl)oxy)cyclobutyl)acrylamide]",> 1000,> 1000,> 1000,≤ 200,> 1000,> 1000
"C=CC(=O)NC1CC(Oc2cc3c(Nc4cccc5ccccc45)ncnc3cc2OC)C1 (stereo not drawn) [Compound 81, N-(3-((7-methoxy-4-(naphthalen-1-ylamino)quinazolin-6-yl)oxy)cyclobutyl)acrylamide]",≤ 200,≤ 200,200 to 1000,≤ 200,200 to 1000,200 to 1000
"C=CC(=O)N[C@H]1C[C@@H](Oc2cc3c(Nc4ccc(Cl)c(Cl)c4)ncnc3cc2OC)C1 [Compound 82, N-((1s,3s)-3-((4-((3,4-dichlorophenyl)amino)-7-methoxyquinazolin-6-yl)oxy)cyclobutyl)acrylamide]",≤ 200,200 to 1000,200 to 1000,≤ 200,200 to 1000,200 to 1000
